Laboratory results from patent US20040258771A1 (priority 2001, published 2004).

Tests used:
Ovarian cancer cells = test: Human cancer cell assessment, ovarian; type: cell-based
Source text: As a quick secondary screen, the additive alone and in combination with the target drug was examined in these human cancer cell lines. The results of TK-211 are shown as a specific example.

tumor growth = settings: has been shown (prior knowledge); cited from earlier work
mice = settings: cited from earlier work

N.N.[Cl][Pt][Cl] [Cisplatin, cis-diamine-dichloroplatinum (II)]
Cell survival (Ovarian cancer cells; 1 μg/ml): 3%
Cell survival (Ovarian cancer cells; 2 μg/ml): 1%

NCCCNCCSP(=O)(O)O [Amifostine]
effect on cisplatin efficacy (tumor growth): slight impairment of cisplatin efficacy
known reduction of cisplatin side effects (mice): only to slightly reduce weight loss and hypothermia
